Test results: PMC5761851, “Application of a phenotypic drug discovery strategy to identify biological and chemical starting points for inhibition of TSLP production in lung epithelial cells” (PLoS ONE, 2018)

How the values were obtained:
Test in all cases: kinase selectivity panel
Format in all cases: biochemical
Axl = molecular target: T1, Axl (Homo sapiens, UniProt P30530); settings: read-out: percentage of control activity (POC), Axl
T1 construct: purchased Eurofins Pharma Discovery Services (KinaseProfiler; Cerep BioPrint panel)
T1 sequence (P30530 26-894): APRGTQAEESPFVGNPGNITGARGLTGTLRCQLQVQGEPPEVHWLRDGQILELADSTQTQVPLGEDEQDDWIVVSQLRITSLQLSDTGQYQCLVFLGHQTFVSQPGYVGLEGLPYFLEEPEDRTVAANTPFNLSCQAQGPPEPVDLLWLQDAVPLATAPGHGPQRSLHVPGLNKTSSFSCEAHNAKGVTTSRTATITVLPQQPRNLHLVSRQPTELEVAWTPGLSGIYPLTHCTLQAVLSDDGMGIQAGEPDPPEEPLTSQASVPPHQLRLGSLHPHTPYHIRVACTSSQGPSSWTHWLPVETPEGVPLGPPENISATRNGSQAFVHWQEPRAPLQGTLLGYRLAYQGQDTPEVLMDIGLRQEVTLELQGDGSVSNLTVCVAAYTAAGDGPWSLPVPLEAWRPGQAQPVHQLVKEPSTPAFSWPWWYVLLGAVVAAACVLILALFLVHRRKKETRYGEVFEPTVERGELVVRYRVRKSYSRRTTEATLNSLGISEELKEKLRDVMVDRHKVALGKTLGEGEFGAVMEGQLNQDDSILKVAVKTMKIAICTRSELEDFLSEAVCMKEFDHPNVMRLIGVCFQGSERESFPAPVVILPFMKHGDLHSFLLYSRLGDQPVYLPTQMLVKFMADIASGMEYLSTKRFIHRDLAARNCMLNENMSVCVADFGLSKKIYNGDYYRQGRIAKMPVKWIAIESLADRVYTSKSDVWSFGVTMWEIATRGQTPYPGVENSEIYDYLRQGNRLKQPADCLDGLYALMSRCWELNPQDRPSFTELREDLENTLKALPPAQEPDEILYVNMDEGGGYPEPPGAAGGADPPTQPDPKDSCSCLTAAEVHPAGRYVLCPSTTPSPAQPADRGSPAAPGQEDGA
In short: (§1)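 Single-point screen: 10 μM, duplicate, 125-kinase panel; follow-up IC50 from 9-point titration in duplicate for chosen hits.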

CaMKI = molecular target: T2, CaMKI (Homo sapiens, UniProt Q14012); settings: read-out: percentage of control activity (POC), CaMKI
T2 construct: purchased Eurofins Pharma Discovery Services (KinaseProfiler; Cerep BioPrint panel)
In short: as §1

Fms = molecular target: T3, Fms (Homo sapiens, UniProt P07333); settings: for remaining activity at 10 µM: read-out: percentage of control activity (POC), Fms
T3 construct: purchased Eurofins Pharma Discovery Services (KinaseProfiler; Cerep BioPrint panel)
In short: as §1

JAK3 = molecular target: T4, JAK3 (Homo sapiens, UniProt P52333); settings: read-out: percentage of control activity (POC), JAK3
T4 construct: purchased Eurofins Pharma Discovery Services (KinaseProfiler; Cerep BioPrint panel)
T4 sequence (P52333 1-1124): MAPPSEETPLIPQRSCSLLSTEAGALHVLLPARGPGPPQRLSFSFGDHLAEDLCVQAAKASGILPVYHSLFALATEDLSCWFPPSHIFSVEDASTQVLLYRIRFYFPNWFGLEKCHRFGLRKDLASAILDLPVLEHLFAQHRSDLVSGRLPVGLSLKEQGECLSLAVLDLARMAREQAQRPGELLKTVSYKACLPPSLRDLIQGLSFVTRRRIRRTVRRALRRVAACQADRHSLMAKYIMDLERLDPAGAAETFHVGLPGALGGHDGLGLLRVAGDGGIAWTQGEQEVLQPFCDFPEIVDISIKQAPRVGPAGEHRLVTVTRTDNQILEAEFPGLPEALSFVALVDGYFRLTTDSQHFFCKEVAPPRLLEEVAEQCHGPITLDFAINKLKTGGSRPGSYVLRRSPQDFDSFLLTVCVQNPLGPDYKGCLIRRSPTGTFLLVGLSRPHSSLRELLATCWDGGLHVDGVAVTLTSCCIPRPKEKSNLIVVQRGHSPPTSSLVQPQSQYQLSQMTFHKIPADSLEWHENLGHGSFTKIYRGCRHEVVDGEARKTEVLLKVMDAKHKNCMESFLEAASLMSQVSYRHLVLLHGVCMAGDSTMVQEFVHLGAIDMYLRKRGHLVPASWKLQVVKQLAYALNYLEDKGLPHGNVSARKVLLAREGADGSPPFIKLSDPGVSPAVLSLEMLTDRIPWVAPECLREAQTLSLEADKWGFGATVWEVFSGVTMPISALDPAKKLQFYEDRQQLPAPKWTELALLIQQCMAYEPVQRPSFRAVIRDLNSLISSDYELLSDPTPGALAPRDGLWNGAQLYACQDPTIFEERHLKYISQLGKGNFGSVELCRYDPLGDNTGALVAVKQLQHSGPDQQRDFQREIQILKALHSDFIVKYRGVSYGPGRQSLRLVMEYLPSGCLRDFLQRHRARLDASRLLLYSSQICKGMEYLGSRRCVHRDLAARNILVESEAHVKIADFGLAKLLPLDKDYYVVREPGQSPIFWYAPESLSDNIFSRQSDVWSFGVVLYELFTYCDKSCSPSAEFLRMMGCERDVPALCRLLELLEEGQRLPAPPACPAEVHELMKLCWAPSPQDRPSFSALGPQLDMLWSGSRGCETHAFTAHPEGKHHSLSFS
In short: as §1

PTK5 = molecular target: T5, PTK5 (Homo sapiens, UniProt P42685); settings: for remaining activity at 10 µM: read-out: percentage of control activity (POC), PTK5
T5 construct: purchased Eurofins Pharma Discovery Services (KinaseProfiler; Cerep BioPrint panel)
In short: as §1

SAPK2b = molecular target: T6, SAPK2b (Homo sapiens, UniProt Q15759); settings: for inhibition at 10 µM: read-out: inhibition of p38 β(SAPK2β); for remaining activity at 10 µM: read-out: percentage of control activity (POC), SAPK2b
T6 construct: purchased Eurofins Pharma Discovery Services (KinaseProfiler; Cerep BioPrint panel)
In short: as §1

c-RAF = molecular target: T7, c-RAF (Homo sapiens, UniProt P04049); settings: read-out: percentage of control activity (POC), c-RAF
T7 construct: purchased Eurofins Pharma Discovery Services (KinaseProfiler; Cerep BioPrint panel)
In short: as §1

T7 sequence (P04049 whole entry): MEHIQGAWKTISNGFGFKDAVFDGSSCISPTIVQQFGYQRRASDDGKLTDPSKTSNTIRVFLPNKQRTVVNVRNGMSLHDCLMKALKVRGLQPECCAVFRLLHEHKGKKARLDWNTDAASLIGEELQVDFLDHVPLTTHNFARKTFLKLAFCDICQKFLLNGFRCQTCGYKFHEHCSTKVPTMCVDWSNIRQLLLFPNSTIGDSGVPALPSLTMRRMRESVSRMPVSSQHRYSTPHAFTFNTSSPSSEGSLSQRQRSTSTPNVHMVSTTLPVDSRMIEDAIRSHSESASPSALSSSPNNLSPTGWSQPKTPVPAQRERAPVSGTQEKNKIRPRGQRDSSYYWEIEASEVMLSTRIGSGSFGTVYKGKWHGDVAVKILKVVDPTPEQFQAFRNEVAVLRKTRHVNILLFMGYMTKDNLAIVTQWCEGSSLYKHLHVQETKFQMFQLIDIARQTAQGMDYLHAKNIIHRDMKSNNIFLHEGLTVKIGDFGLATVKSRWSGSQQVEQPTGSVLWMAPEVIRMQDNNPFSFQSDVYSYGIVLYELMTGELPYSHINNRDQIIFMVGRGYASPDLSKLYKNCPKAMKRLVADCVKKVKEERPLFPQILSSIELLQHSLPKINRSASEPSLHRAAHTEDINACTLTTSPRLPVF
T5 sequence (P42685 whole entry): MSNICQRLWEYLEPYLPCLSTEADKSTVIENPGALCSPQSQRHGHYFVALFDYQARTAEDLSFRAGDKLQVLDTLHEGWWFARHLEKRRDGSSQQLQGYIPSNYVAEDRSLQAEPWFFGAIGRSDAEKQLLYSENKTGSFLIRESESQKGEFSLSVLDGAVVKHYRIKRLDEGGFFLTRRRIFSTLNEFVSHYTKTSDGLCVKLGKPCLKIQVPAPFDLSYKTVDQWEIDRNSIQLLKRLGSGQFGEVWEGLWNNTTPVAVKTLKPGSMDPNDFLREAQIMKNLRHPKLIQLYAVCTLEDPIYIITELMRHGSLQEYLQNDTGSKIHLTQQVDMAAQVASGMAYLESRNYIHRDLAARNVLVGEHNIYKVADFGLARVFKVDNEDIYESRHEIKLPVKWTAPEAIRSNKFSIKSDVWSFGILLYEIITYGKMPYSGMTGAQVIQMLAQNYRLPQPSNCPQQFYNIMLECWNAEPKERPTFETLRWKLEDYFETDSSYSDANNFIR
T2 sequence (Q14012 whole entry): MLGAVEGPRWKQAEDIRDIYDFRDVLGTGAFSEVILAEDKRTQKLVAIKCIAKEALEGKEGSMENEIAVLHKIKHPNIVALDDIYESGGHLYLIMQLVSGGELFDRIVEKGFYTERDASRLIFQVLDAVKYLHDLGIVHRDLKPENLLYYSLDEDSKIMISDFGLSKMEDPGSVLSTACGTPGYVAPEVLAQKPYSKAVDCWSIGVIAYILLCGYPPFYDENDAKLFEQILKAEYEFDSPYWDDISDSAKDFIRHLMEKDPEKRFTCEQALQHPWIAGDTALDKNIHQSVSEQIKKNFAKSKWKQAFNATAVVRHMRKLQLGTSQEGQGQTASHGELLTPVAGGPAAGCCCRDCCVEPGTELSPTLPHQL
T6 sequence (Q15759 whole entry): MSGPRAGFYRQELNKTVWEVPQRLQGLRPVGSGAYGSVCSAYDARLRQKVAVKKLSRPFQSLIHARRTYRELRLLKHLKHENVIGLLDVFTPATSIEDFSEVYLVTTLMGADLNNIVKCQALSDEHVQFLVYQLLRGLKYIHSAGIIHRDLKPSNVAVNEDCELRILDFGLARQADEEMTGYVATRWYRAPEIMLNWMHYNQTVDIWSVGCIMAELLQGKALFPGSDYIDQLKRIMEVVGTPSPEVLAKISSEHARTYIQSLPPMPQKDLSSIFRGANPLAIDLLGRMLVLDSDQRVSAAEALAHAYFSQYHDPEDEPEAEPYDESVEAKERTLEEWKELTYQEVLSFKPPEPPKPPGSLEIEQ
T3 sequence (P07333 20-972): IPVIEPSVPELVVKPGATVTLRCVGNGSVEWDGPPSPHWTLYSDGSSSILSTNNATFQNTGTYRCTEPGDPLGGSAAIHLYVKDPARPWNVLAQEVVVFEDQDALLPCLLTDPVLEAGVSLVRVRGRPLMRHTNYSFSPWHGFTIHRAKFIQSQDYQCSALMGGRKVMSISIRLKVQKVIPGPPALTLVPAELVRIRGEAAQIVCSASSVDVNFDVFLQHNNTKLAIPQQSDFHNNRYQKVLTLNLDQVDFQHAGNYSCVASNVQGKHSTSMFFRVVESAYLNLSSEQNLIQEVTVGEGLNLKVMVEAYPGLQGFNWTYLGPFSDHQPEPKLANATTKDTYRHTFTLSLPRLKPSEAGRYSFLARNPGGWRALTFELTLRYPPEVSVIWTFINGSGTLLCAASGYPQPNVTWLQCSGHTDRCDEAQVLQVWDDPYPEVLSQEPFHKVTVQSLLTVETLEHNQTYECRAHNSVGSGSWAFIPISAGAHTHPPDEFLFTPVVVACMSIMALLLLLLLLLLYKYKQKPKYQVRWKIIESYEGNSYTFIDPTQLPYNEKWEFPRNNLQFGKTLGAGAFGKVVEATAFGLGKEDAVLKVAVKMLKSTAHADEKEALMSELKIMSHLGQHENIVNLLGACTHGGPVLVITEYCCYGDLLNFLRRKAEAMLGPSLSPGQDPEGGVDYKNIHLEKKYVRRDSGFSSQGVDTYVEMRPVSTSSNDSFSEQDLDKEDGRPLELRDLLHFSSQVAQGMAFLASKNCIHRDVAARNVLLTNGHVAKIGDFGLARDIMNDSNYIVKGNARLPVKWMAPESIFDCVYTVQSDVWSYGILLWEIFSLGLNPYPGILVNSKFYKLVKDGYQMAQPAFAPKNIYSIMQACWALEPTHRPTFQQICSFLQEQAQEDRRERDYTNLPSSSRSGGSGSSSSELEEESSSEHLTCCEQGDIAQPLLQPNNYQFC

Compound	remaining activity at 10 µM (Axl) [%]	remaining activity at 10 µM (CaMKI) [%]	remaining activity at 10 µM (Fms) [%]	remaining activity at 10 µM (JAK3) [%]	remaining activity at 10 µM (PTK5) [%]	inhibition at 10 µM (SAPK2b) [%]	remaining activity at 10 µM (SAPK2b) [%]	remaining activity at 10 µM (c-RAF) [%]	inhibition at 10 µM (Fms) [%]	inhibition at 10 µM (PTK5) [%]
CC(C)(C)N1CCC(c2cc(-c3ccc(F)cc3Cl)c3cc[n+]([O-])c(-c4c(Cl)cccc4Cl)c3n2)CC1 [compound 2]	98	94	100	102	97	~100	-5	112	–	–
Cn1cc(-c2cccc(-c3nc(C(=O)NC4C5CC6CC4CC(O)(C6)C5)c(N)nc3N)c2)cn1 (centres unmarked) [compound 4]	59	87	63	89	54	–	99	52	–	–
CS(=O)(=O)N1CCN(c2ccc(Nc3ncc(C(N)=O)c(NC4CC4)n3)cc2)CC1 [compound 5]	12	28	-2	-2	31	–	82	10	–	–

Continued, values first:

remaining activity at 10 µM (Axl) [%]	remaining activity at 10 µM (CaMKI) [%]	remaining activity at 10 µM (Fms) [%]	remaining activity at 10 µM (JAK3) [%]	remaining activity at 10 µM (PTK5) [%]	inhibition at 10 µM (SAPK2b) [%]	remaining activity at 10 µM (SAPK2b) [%]	remaining activity at 10 µM (c-RAF) [%]	inhibition at 10 µM (Fms) [%]	inhibition at 10 µM (PTK5) [%]	Compound
88	95	47	100	56	~100	-6	54	53	–	Cc1ccc(C(=O)NCC2CC2)cc1-c1ccc2c(c1)NC(=O)C21CCCC1 [compound 3]
91	108	26	99	4	~100	-4	61	74	96	COc1c(NC(=O)c2ccc(C)c(-c3nnc4c(NCC(C)(C)C)nccn34)c2)cc(C(C)(C)C)cc1NS(C)(=O)=O [compound 7, reference compound]
